Measurements from patent publication US4591573A (priority 1983, dated 1986).
Structures can show the parent of a compound that is named as a salt.

What was measured:
human eyes = settings: in vivo; cited from earlier work
[1] = test system: antibody to L-hyoscyamine (antiserum); assay type: binding, New Zealand white rabbit
mice = settings: mouse, in vivo; cited from earlier work
[2] = test system: antibody of Wurzeburger radioimmunoassay; settings: cited from earlier work
[3] = test system: antibody of Virtanen radioimmunoassay; settings: cited from earlier work
spinal cord = settings: dog, in vivo; cited from earlier work
[4] = in vivo; cited from earlier work
patients = settings: human, in vivo; cited from earlier work
[5] = test system: peripheral parasympathetic nervous system; settings: in vivo; cited from earlier work
children (flush) = settings: in vivo, po; cited from earlier work
[6] = in vivo; cited from earlier work; remark: listed apart in the source
frogs = settings: in vivo; cited from earlier work

Question: For `CN1[C@@H]2CC[C@H]1C[C@@H](OC(=O)[C@H](CO)c1ccccc1)C2` [L-hyoscyamine sulphate], which “action on human eyes” value (human eyes) is on record?
Answer: 0.25% solution, can replace a 1% solution of atropine sulphate

Question: What does the source list for `CN1[C@@H]2CC[C@H]1C[C@@H](O)C2` [Tropine, tropine]?
Answer: % Cross-reactivity [1]: 0%; recognition by / cross-reaction with the antibody [1]: did not cross-react with the antibody

Question: For `CN1[C@@H]2CC[C@H]1C[C@@H](OC(=O)C(CO)c1ccccc1)C2` (mixture of isomers) [atropine, D,L-hyoscyamine], which narcotization (mice) is on record?
Answer: became narcotized

Question: And the “% Cross-reactivity” value [1]?
Answer: 30%

Question: What about the “Specificity (cross-reactivity), Verma” value [1] of the same compound?
Answer: 37%

Question: And the “cross reaction / cross-reactivity with antibody of the invention” value [1]?
Answer: about 37%

Question: And the “recognition by / cross-reaction with the antibody” value (from here on “recognition by / cross-reaction”) [1]?
Answer: recognized by the antibody

Question: And the “Specificity (percentage of cross reactivity), Wurzeburger” value [2]?
Answer: 100%

Question: What about the “Specificity (cross-reactivity), Virtanen” value [3] of the same compound?
Answer: 100%

Question: And the “effect on excitability of the spinal cord” value (spinal cord)?
Answer: increase the excitability of the spinal cord

Question: And the cycloplegic effect [4]?
Answer: exert a cycloplegic effect

Question: And the effect on thermoregulation [4]?
Answer: hinders thermoregulation

Question: What about the complications (patients) of the same compound?
Answer: tachycardia, lethal arrhythmias and/or extension of the myocardial infarction

Question: With `CN1[C@@H]2CC[C@H]1C[C@@H](OC(=O)[C@H](CO)c1ccccc1)C2` [L-hyoscyamine] as the compound, how does the narcotization (mice) read?
Answer: not affected

Question: And the “% Cross-reactivity” value [1]?
Answer: 100%

Question: And the “Specificity (cross-reactivity), Verma” value [1]?
Answer: 100%

Question: What about the “Specificity (percentage of cross reactivity), Wurzeburger” value [2] of the same compound?
Answer: 2.4%

Question: And the “peripheral activity” value [5]?
Answer: the most potent parasympathetic antispasmodic known

Question: What about the “Specificity (cross-reactivity), Virtanen” value [3] of the same compound?
Answer: 100%

Question: And the “effect on excitability of the spinal cord” value (spinal cord)?
Answer: no effect

Question: What about the “quantity needed for flush” value (children (flush)) of the same compound?
Answer: Less quantities of L-hyoscyamine were needed than atropine

Question: For `O=C(O)C(CO)c1ccccc1` (racemic) [Tropic Acid, dl-tropic acid], which “% Cross-reactivity” value [1] is on record?
Answer: 0%

Question: What about the “recognition by / cross-reaction” value [1] of the same compound?
Answer: did not cross-react with the antibody

Question: For `CN1[C@@H]2C[C@@H](OC(=O)[C@H](CO)c3ccccc3)C[C@H]1[C@@H]1O[C@@H]12` [Scopolamine, 1-scopolamine-HCl], which “% Cross-reactivity” value [1] is on record?
Answer: 0%

Question: With `CN1[C@@H]2CC[C@H]1C[C@@H](OC(=O)C(O)c1ccccc1)C2` (mixture of isomers) [Homatropine, dl-homatropine-HBr] as the compound, how does the “recognition by / cross-reaction” value [1] read?
Answer: recognized by the antibody

Question: With `CN1[C@@H]2CC[C@H]1C[C@@H](OC(=O)[C@@H](CO)c1ccccc1)C2` [D-hyoscyamine] as the compound, how does the “cross reaction / cross-reactivity with antibody of the invention” value [1] read?
Answer: about 37%

Question: And the “peripheral activity” value [5]?
Answer: peripherally inactive

Question: What about the “rate of destruction compared with L-form” value [6] of the same compound?
Answer: destroyed more slowly than the L-form

Question: What about the “quantity required for flush, as multiple” value (children (flush)) of the same compound?
Answer: 20-40 times

Question: What about the “effect on spinal cord” value (frogs) of the same compound?
Answer: an excitant to the spinal cord

Question: For `CN1[C@@H]2CC[C@H]1C[C@@H](OC(=O)C(CO)c1ccccc1)C2` (stereo partly drawn) [atropine sulfate], which “serum level of 1-hyoscyamine after 3 hours” value (after 3 hours) is on record?
Answer: approximately 50%

Question: What about the serum level course (in vivo) of the same compound?
Answer: steady decline curve after 40 minutes
